This note sets out measurements from patent US20170370929A1, “POSITIVE ALLOSTERIC MODULATORS OF THE DELTA-OPIOID RECEPTOR” (BRISTOL-MYERS SQUIBB COMPANY, priority 2014, published 2017).

In one assay the target is δ receptor (Homo sapiens, UniProt P41143). Kind of assay: PathHunter β-arrestin recruitment assay in CHO-OPRD1 cells. Format: cell-based. Background: Arrestin recruitment assays detect the binding of arrestin to an activated receptor.
Another assay deals with μ receptor (Homo sapiens, UniProt P35372). Nature of the assay: PathHunter β-arrestin recruitment assay in CHO-OPRM1 cells. The assay is classed as cell-based. Particulars: PAM mode, up to the highest concentration tested (10 μM).

Each structure is given as a SMILES string.

Chain of δ receptor (P41143 whole entry): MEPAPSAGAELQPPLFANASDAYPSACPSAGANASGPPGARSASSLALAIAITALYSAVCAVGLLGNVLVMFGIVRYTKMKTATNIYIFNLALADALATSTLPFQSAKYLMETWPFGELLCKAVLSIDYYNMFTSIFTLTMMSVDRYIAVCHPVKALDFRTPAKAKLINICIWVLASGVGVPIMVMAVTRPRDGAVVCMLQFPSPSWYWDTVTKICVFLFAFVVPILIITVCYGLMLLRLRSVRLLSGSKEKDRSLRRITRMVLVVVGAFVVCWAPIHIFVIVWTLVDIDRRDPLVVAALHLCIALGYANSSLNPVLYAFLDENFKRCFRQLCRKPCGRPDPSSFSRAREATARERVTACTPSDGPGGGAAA
Chain of μ receptor (P35372 whole entry): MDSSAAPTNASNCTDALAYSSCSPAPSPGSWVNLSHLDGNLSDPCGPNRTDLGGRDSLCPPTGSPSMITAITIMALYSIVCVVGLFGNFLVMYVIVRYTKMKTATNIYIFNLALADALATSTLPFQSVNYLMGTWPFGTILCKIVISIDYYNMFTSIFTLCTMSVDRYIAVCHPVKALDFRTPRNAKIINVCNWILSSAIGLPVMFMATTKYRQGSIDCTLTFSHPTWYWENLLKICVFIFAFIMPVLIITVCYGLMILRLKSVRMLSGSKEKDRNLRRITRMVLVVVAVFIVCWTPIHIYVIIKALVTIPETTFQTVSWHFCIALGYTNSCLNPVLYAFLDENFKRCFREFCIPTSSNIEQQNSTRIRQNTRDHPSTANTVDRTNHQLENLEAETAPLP

As usually defined, the EC50 is the concentration giving half of the maximal effect. `CC1(C)CC(=O)C2=C(C1)OC1=C(C(=O)CC(C)(C)C1)C2c1ccc(OCc2ccccc2)cc1` [Analog 1]: the EC50 at δ receptor (PAM mode, in the presence of an EC20 of leu-enkephalin, CHO-OPRD1 cells) came to 200 nM. Besides, the “selectivity compared with PAM activity at the μ receptor” value at δ receptor (β-arrestin recruitment assay, δ versus μ receptor PAM activity) is 30 fold.

On to `CC1(C)CC(=O)C2=C(C1)OC1=C(C(=O)CC(C)(C)C1)C2c1ccc(OCc2ccccc2Br)cc1` [Analog 10, 9-(4-((2-bromobenzyl)oxy)phenyl)-3,3,6,6-tetramethyl-3,4,5,6,7,9-hexahydro-1H-xanthene-1,8(2H)-dione], for which the “PAM activity at the δ receptor (in words)” value at δ receptor (PAM mode, β-arrestin recruitment) was “equipotent PAM activity to 2”. For the same compound, at μ receptor, the “PAM activity at the μ receptor” value is on record as “no observable PAM activity”.
